According to patent US11168106B1, “Synthesis and stabilization of nicotinamide ribose and its derivatives” (priority 2017, dated 2021):

Columns and labels:
[1] = Decomposition of nicotinamide ribose in water with and without borate, HPTLC read at 254 nm; format: physicochemical; details: for Area [%] of assigned substance, decomposition of nicotinamide ribose with borate: boric acid added in 1:1 molar ratio, in water; for Area [%] of assigned substance, decomposition of nicotinamide ribose with borate / Area [%] of assigned substance, decomposition of nicotinamide ribose without borate: water bath 65° C., 8 h, HPTLC at 254 nm; for Area [%] of assigned substance, decomposition of nicotinamide ribose without borate: 1 mg/mL in water
Method: Nicotinamide riboside (NR) as its chloride salt was used at 100 mM. Boric acid: was used at 300 mM. All samples were prepared in water. This, 1 mg/mL of nicotinamide riboside of capsule content was weighed in a 25 mL volumetric flask. Water was added to 25 mL total volume. For the reaction in the presence of boric acid, the same was done with boric acid added in a 1:1 molar ratio. In either case, 5 mL of each solution prepared was placed in the water bath at 65° C. A control was incubated at room temperature. After incubation for 8 h, 2 μL of each solution (heated and not heated) are placed on the HPTLC plate. The plate is eluted in the following mobile phase: ethanol, ammonium acetate 1 M (7:3). The plate is read at 254 nm to obtain the respective peaks.

NAD = details: healthy middle-aged and older adults, cited from earlier work

Row | Area [%] of assigned substance, decomposition of nicotinamide ribose with borate [1] [%] | Stabilization with respect to decomposition ([1]; boric acid vs no boric acid (FIG. 3 and FIG. 4)) | Area [%] of assigned substance, decomposition of nicotinamide ribose without borate [1] [%] | SMILES | Effect on NAD level (NAD; chronic supplementation) | Tolerability of chronic supplementation (NAD)
1 | 86.08 | stabilized by boric acid | 70.1878 | NC(=O)c1ccc[n+]([C@@H]2O[C@H](CO)[C@@H](O)[C@H]2O)c1 [Nicotinamide riboside] | elevates NAD | well-tolerated
2 | 13.92 | – | 29.8122 | NC(=O)c1cccnc1 [Nicotinamide] | – | –
